Consider 2 compounds from ChEMBL document CHEMBL4619766, “Eudesmacarbonate, a Eudesmane-Type Sesquiterpene from a Marine Filamentous Cyanobacterial Mat (Oscillatoriales) in the Florida Keys” (J Nat Prod, 2020).

The nature of data set [1]: Neurotoxicity in 4 to 5 hpf stage wild type zebrafish AB embryo assessed as induction of motor incoordination at 4.5 to 22 nM under 14 hrs light and 10 hrs dark condition and measured at 5 dpf stage by microscopic analysis. The conditions noted are these: in vivo, 0.022 µM. It is filed as toxicity, Danio rerio.
Data set [2] can be described thus: Neurotoxicity in 4 to 5 hpf stage wild type zebrafish AB embryo assessed as reduction in spontaneous coiling frequency at 4.5 to 22 nM under 14 hrs light and 10 hrs dark condition and measured at 24 hpf stage by microscopic analysis. The conditions noted are these: in vivo, 0.022 µM. In kind it is toxicity, Danio rerio.
A short description of data set [3]: Neurotoxicity in 4 to 5 hpf stage wild type zebrafish AB embryo assessed as irregular inflated swim bladder at 4.5 to 22 nM under 14 hrs light and 10 hrs dark condition and measured at 5 dpf stage by microscopic analysis. The following applies: in vivo, 0.022 µM. In kind it is toxicity, Danio rerio.
Data set [4] in a line: Neurotoxicity in 4 to 5 hpf stage wild type zebrafish AB embryo assessed as induction of head butting at 4.5 to 22 nM under 14 hrs light and 10 hrs dark condition and measured at 5 dpf stage by microscopic analysis. The conditions noted are these: in vivo, 0.022 µM. It is filed as toxicity, Danio rerio.
A short description of data set [5]: Neurotoxicity in 4 to 5 hpf stage wild type zebrafish AB embryo assessed as effect on spasms at 4.5 to 22 nM under 14 hrs light and 10 hrs dark condition and measured at 5 dpf stage by microscopic analysis. In kind it is toxicity, Danio rerio. The conditions noted are these: in vivo, 0.022 µM.
A short description of data set [6]: Toxicity in 4 to 5 hpf stage wild type zebrafish AB embryo assessed as induction of bradycardia at 4.5 to 22 nM under 14 hrs light and 10 hrs dark condition and measured at 3 dpf stage by microscopic analysis. Details: species or system Danio rerio. The conditions noted are these: in vivo, 0.022 µM.
The nature of data set [7]: Toxicity in 4 to 5 hpf stage wild type zebrafish AB embryo assessed as effect on heart rate at 9.4 to 94 uM under 14 hrs light and 10 hrs dark condition and measured at 3 dpf stage by microscopic analysis. Details: species or system Danio rerio. The conditions noted are these: in vivo.
A short description of data set [8]: Neurotoxicity in 4 to 5 hpf stage wild type zebrafish AB embryo assessed as irregular inflated swim bladder at 9.4 to 94 uM under 14 hrs light and 10 hrs dark condition and measured at 5 dpf stage by microscopic analysis. The conditions noted are these: in vivo. It is filed as toxicity, Danio rerio.
Data set [9] in a line: Neurotoxicity in 4 to 5 hpf stage wild type zebrafish AB embryo assessed as irregular development of swim bladder dysfunction at 9.4 to 94 uM under 14 hrs light and 10 hrs dark condition and measured at 5 dpf stage by microscopic analysis. It is filed as toxicity, Danio rerio. The following applies: in vivo.
The nature of data set [10]: Neurotoxicity in 4 to 5 hpf stage wild type zebrafish AB embryo assessed as effect on spasms at 9.4 to 94 uM under 14 hrs light and 10 hrs dark condition and measured at 5 dpf stage by microscopic analysis. In kind it is toxicity, Danio rerio. The conditions noted are these: in vivo.
The nature of data set [11]: Neurotoxicity in 4 to 5 hpf stage wild type zebrafish AB embryo assessed as induction of motor incoordination at 9.4 to 94 uM under 14 hrs light and 10 hrs dark condition and measured at 5 dpf stage by microscopic analysis. It is filed as toxicity, Danio rerio. The following applies: in vivo.
The species named for data set [12] is Danio rerio. Description: Induction of larval immobilization in 7 dpf stage zebra fish PSA assessed as immobilization recovery level at 110 uM incubated for 90 mins followed by medium replacement and measured within 10 mins relative to control. It is filed as toxicity, organism-based. The following applies: zebrafish, in vivo, 1.5 h.
Data set [13] in a line: Neurotoxicity in 7 dpf stage zebra fish PSA larvae assessed induction of larval immobilization at 110 to 190 uM measured within 45 mins. In kind it is toxicity, Danio rerio. The following applies: zebrafish, 0.75 h.
A short description of data set [14]: Neurotoxicity in 4 to 5 hpf stage wild type zebrafish AB embryo assessed as induction of head butting at 9.4 to 94 uM under 14 hrs light and 10 hrs dark condition and measured at 5 dpf stage by microscopic analysis. In kind it is toxicity, Danio rerio. The conditions noted are these: in vivo.
Data set [15] is described as follows: Neurotoxicity in 7 dpf stage zebra fish PSA larvae assessed induction of larval immobilization at 38 uM measured over 90 mins. It is filed as toxicity, Danio rerio. The following applies: zebrafish, 1.5 h.
A short description of data set [16]: Neurotoxicity in 4 to 5 hpf stage wild type zebrafish AB embryo assessed as effect on spontaneous coiling frequency at >= 38 uM under 14 hrs light and 10 hrs dark condition and measured at 24 hpf stage by microscopic analysis. In kind it is toxicity, Danio rerio. The conditions noted are these: in vivo.
For data set [17], the species on record is Danio rerio. Put plainly: Induction of larval immobilization in 7 dpf stage zebra fish PSA assessed as immobilization recovery level at 190 uM incubated for 90 mins followed by medium replacement and measured within 10 mins relative to control. In kind it is toxicity, organism-based. The conditions noted are these: zebrafish, in vivo, 1.5 h.

Molecules are shown by their SMILES.

For the compound `C=C(C=O)C[C@@H]1C[C@H](O)[C@]2(C)O[C@@H]3C[C@@H]4O[C@@H]5C[C@]6(C)O[C@]7(C)CC[C@@H]8O[C@@H]9C[C@]%10(C)O[C@@H]%11C(C)=CC(=O)O[C@H]%11C[C@H]%10O[C@H]9C[C@@H](C)[C@H]8O[C@H]7C[C@H]6O[C@@]5(C)C/C=C\[C@H]4O[C@H]3C[C@H]2O1` [BREVETOXIN B], the Activity entry is recorded as “Toxic” in [1]; “Non-Toxic” in [2]; “Toxic” in [3]; “Toxic” in data set [4]; “Toxic” in [5]; “Toxic” in [6].
Consider `CC(C)[C@@H]1CC[C@]2(C)CCC[C@]3(C)OC(=O)O[C@H]1[C@@H]23`, for which the Activity entry is recorded as “Toxic” in data set [7]; “Toxic” in data set [8]; “Toxic” in [9]; “Toxic” in data set [10]; “Toxic” in data set [11]; 87% in the data set listed under Danio rerio [12]. The Activity result is reported as “Toxic” in data set [13]; “Toxic” in [14]; “Non-Toxic” in [15]; “Toxic” in [16]; 47% in the data set listed under Danio rerio [17].
